US11965159B2, “Compositions and methods for regulating proteins and nucleic acids activities” (THE BROAD INSTITUTE, INC., priority 2019, dated 2024)
“Also recorded” adds a separate entry of the source.

Experiments:
Format in all cases: cell-based
dCas9 = experiment: dCas9-based transcriptional activation of HBG1 gene in HEK293FT cells (RT-qPCR); conditions: for inhibition of the HBG1 transcriptional activation: 48 hours
Experimental: Transcription activation experiments and quantitative RT-PCR analyses. For transcription activation experiments 250,000 cells/well were plated in a 12 well plate. The cells were transiently transfected with a 1:1:1 mass ratio of the dCas9 plasmid, MS2-P65-HSF1 effector plasmid and the sgRNA plasmid targeting the HBG1 gene or an RFP control plasmid. A total of 1.6 μg plasmid DNA was transfected using Lipofectamine™ 2000 (Life Technologies™) according to manufacturer's protocol. Immediately after transfection, the cells were treated with an appropriate dose of the small molecule inhibitors for 48 hours following which the cells were harvested and RNA was extracted using the EZNA® Total RNA kit I (OMEGA) as per manufacturer's instructions. 1 μg total cellular RNA was used to perform reverse transcription using the High-Capacity cDNA Reverse Transcription Kit (Applied Biosystems™) or the qScript® cDNA Synthesis Kit (QUANTABIO). qPCR reactions were performed to quantify RNA expression using the TaqMan™ probes (Life Technologies™ HBG1/HBG2: Hs00361131_g1 and ACTB: Hs01060665_g1) and TaqMan™ Fast Advanced Master Mix (Life Technologies™) in 5 μL multiplexed reactions and 384-well format using the LightCycler® 480 Instrument II (ROCHE). For each sample, six technical replicates were performed. Data were analyzed using the LightCycler® 480 software (ROCHE) by the ΔΔCt method: Ct values for the gene of interest (HBG1) were normalized to Ct values for the housekeeping gene (ACTB) and fold-changes in the expression level of the gene of interest were normalized to RFP-transfected control. The data are reported as mean S.E.M. for technical replicates.
For transcription activation experiments 250,000 cells/well were plated in a 12 well plate. […] Data were analyzed using the LightCycler® 480 software (ROCHE) by the ΔΔCt method: Ct values for the gene of interest (HBG1) were normalized to Ct values for the housekeeping gene (ACTB) and fold-changes in the expression level of the gene of interest were normalized to RFP-transfected control. […]

[1] = test system: CRISPR-Cas9 based immunity in S. aureus RN4220; experiment: Bacterial resistance study against phage (CRISPR immunity, OD600 growth curves); conditions: 5-20 μM, 16 h, MOI 1
Experimental: (§1) Bacterial study. Plasmid pRH248 harboring SpCas9, tracrRNA and a single-spacer array ([…]) (SEQ ID NO:7) targeting phage DNM474 was constructed via BsaI cloning onto pDB114 as described in Heler et al 6. Plate reader growth curves of bacteria infected with phage were conducted as described previously with minor modifications 7. Overnight cultures were diluted 1:100 into 2 ml of fresh BHI supplemented with appropriate antibiotics and 5 mM CaCl2) and grown to an OD600 of ˜0.2. Immune cells carrying pRH248 were diluted with cells lacking CRISPR-Cas in a 1:10,000 ratio. Following a 15-minute pre-incubation with DMSO or with varying amounts of inhibitors (5-20 μM), the cultures were infected with DNM474 at an initial MOI of 1. To produce plate reader growth curves, 200 μL of infected cultures, normalized for OD600, were transferred to a 96-well plate in triplicate. OD600 measurements were collected every 10 minutes for 16 hours. Similarly, growth curves to evaluate the toxicity of the compounds at 20 μM (FIG. 32) were conducted on cultures lacking CRISPR in the absence of phage.
(§2) Bacterial study. […] Plate reader growth curves of bacteria infected with phage were conducted as described previously with minor modifications^7. […] To produce plate reader growth curves, 200 μL of infected cultures, normalized for OD600, were transferred to a 96-well plate in triplicate. […]

S. aureus RN4220 = experiment: Toxicity study of compounds in bacterial culture (absence of phage); conditions: 20 μM, 16 h, no phage
Experimental: FIG. 79. Toxicity study of compounds in bacterial culture. Bacterial growth study in the presence of the compound. Bacterial cell S. aureus RN4220 strain was allowed to grow either in the presence of DMSO or 20 μM of compound BRD7087 or BRD5779 over 16 h. The experiment was performed in three technical replicates.
as §1, with “Following a 15-minute pre-incubation with DMSO or with varying amounts of inhibitors (5-20 μM), the cultures were infected with DNM474 at an initial MOI of 1.” left out, “OD600 measurements were collected every 10 minutes for 16 hours. Similarly, growth curves to evaluate the toxicity of the compounds at 20 μM (FIG. 32) were conducted on cultures lacking CRISPR in the absence of phage.” left out
as §2

HEK293T cells = experiment: Cell viability assay (ATP content) of HEK293T cells; conditions: up to 20 μM, 24 h
Experimental: FIG. 23—Cell viability assay (ATP content) of HEK293T cells in the presence of compounds. Measurement of ATP content of HEK293T cells upon incubating with BRD7087 and BRD5779 (5-20 μM) for 24 h. Error bars represent ±S.D. from technical replicates (n=3).
FIG. 67. Cell viability assay (ATP content) of HEK293T cells in the presence of compounds. Measurement of ATP content of HEK293T cells upon incubating with BRD7087 and BRD5779 (5-20 μM) for 24 h. Error bars represent ±S.D. from technical replicates (n=3).

Row | Structure (SMILES) | inhibition of the HBG1 transcriptional activation (dCas9) | blockage of CRISPR-Cas9 immunity (sensitization of immune bacteria to phage, OD600) [1] | toxicity to bacteria in the presence of inhibitor alone (S. aureus RN4220) | cellular ATP-levels (HEK293T cells) | inhibition of transcriptional activation (dCas9; 10 μM) [%]
1 | COc1ccc(-c2ccc3c(c2)[C@H]2[C@H](CCN2Cc2ccncc2)[C@@H](CO)N3)cc1 [BRD5779, ((3aR,4S,9bR)-8-(4-Methoxyphenyl)-1-(pyridin-4-ylmethyl)-2,3,3a,4,5,9b-hexahydro-1H-pyrrolo[3,2-c]quinolin-4-yl)methanol] | dose-dependent inhibition | dose-dependent blockage of CRISPR-Cas9 based immunity; also recorded: able to sensitize the immune bacterial cells against target phage in a dose-dependent manner | non-toxic in the absence of phage | did not significantly alter | –
2 | OC[C@H]1Nc2ccc(-c3cccc(F)c3)cc2[C@H]2[C@@H]1CCN2Cc1ccncc1 [BRD7087, ((3aR,4S,9bR)-8-(3-Fluorophenyl)-1-(pyridin-4-ylmethyl)-2,3,3a,4,5,9b-hexahydro-1H-pyrrolo[3,2-c]quinolin-4-yl)methanol] | dose-dependent inhibition | dose-dependent blockage of CRISPR-Cas9 based immunity; also recorded: able to sensitize the immune bacterial cells against target phage in a dose-dependent manner; also recorded: higher activity | non-toxic in the absence of phage | did not significantly alter | > 60
